US20240207283A1, “WATER SOLUBLE COMPLEX COMPOSITIONS AND METHODS THEREOF” (VETERINARY PHARMACY CORPORATION, priority 2021, published 2024)

Key:
[1] = generally known; cited from earlier work
[2] = hydrotrope niacinamide

| pH above which the clear solution begins to form [2] | Compound | solubility in methanol [1] | solubility in water [1] |
| --- | --- | --- | --- |
| – | Cc1cnc(NC(=O)C2=C(O)c3ccccc3S(=O)(=O)N2C)s1 [meloxicam] | slightly soluble in methanol | insoluble in water |
| above 9.0 | CN1C(C(=O)Nc2ccccn2)=C(O)c2ccccc2S1(=O)=O [piroxicam] | – | – |
